“And” between values parts separate entries of the source, which are not always exact repeats. Identical values can stand only once.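 These data come from cells grown in 96-well plates and exposed to compound for 48 hours at five concentrations. GI50 marks 50% less growth. TGI is the concentration that stops growth completely.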
Columns and labels:
Assay in all cases: NCI anticancer screen, dose series, 48 h
SK-MEL-28 melanoma = test system: SK-MEL-28 melanoma
OVCAR-8 ovarian = test system: OVCAR-8 ovarian
SNB-19 CNS = test system: SNB-19 CNS
HCT-15 colon = test system: HCT-15 colon
HCC-2998 colon = test system: HCC-2998 colon
KM12 colon = test system: KM12 colon
ACHN renal = test system: ACHN renal
OVCAR-4 ovarian = test system: OVCAR-4 ovarian
K-562 leukemia = test system: K-562 leukemia
U251 CNS = test system: U251 CNS

Structure (SMILES)	GI50 (SK-MEL-28 melanoma) [µM]	TGI (SK-MEL-28 melanoma) [µM]	GI50 (OVCAR-8 ovarian) [µM]	TGI (OVCAR-8 ovarian)	GI50 (SNB-19 CNS)	TGI (SNB-19 CNS)	GI50 (HCT-15 colon) [µM]	TGI (HCT-15 colon) [µM]	GI50 (HCC-2998 colon) [µM]	TGI (HCC-2998 colon)	GI50 (KM12 colon) [µM]	TGI (KM12 colon)	GI50 (ACHN renal)	TGI (ACHN renal)	GI50 (OVCAR-4 ovarian)	TGI (OVCAR-4 ovarian)	GI50 (K-562 leukemia) [µM]	TGI (K-562 leukemia) [µM]	TGI (U251 CNS)	GI50 (U251 CNS)
CC(=O)OC1CC(C)c2c1ncnc2N1CCN(C(=O)OC(C)(C)C)CC1 (stereo unspecified)	72.9	> 100	54.3	> 100 µM	78.5 µM	> 100 µM	55.3	> 100	69.6	> 100 µM	38.1	> 100 µM	80.7 µM	> 100 µM	63.6 µM	> 100 µM	37.8	> 100		
Nc1nc(N)c2ncn(Cc3c(Cl)cccc3Cl)c2n1		> 100		> 100 µM		> 100 µM		> 100		> 100 µM		> 100 µM		> 100 µM		> 100 µM			> 100 µM	
O=c1cc(-c2ccccc2)oc2cc(OCc3cn(Cc4ccc(F)cc4)nn3)cc(O)c12			3.76	> 100 µM	4.51 µM	83.2 µM			> 100	> 100 µM	> 100	> 100 µM	6.23 µM	> 100 µM			> 100	> 100	> 100 µM	13.9 µM
CCC1N2CCCCC2[C@@H]2c3[nH]c4ccccc4c3CCN12 (stereo partly specified)		> 100		> 100 µM		> 100 µM		> 100		> 100 µM				> 100 µM		> 100 µM		> 100	> 100 µM	
[O-]c1c(-c2ccccc2)[se]c(-c2ccccc2)[n+]1-c1ccccc1		22.7		13.7 µM		20.2 µM		31.2		19.3 µM		23.1 µM				5.95 µM		> 100		
COc1ccc(CNCCCN2C(=O)c3ccc4c5c(ccc(c35)C2=O)C(=O)N(CCCNCCCCNCCCN)C4=O)c(OC)c1OC	1.89	4.81	0.618	8.2 µM	1.42 µM	11.4 µM	2.76	7.94	1.67	4.79 µM	1.27	7.53 µM			1.02 µM	3.08 µM	0.761	12.7	2.97 µM	0.63 µM
CCN(CC)CCNc1ccc(CO)c2sc3ccccc3c(=O)c12	2.29		2.42	14 µM and 17.8 µM	3.54 µM and 13.3 µM and 14.1 µM	29.1 µM [middle of 4 runs]				25.2 µM [middle of 4 runs]		26 µM [middle of 4 runs]	2.35 µM and 6.73 µM and 2.58 µM	7.94 µM and 24.5 µM and 15.9 µM	2.49 µM and 7.63 µM	18.9 µM [middle of 4 runs]			23.7 µM [middle of 4 runs]	3.97 µM and 12.6 µM
CN1C(=O)NC2(O)c3ccccc3C(=O)C12O (stereo unspecified)		> 100		> 100 µM		> 100 µM		> 100				> 100 µM				> 100 µM		> 100	> 100 µM	
CC(=O)c1ccc(NCn2nc(-c3ccccc3O)oc2=S)cc1	> 100	> 100	> 100	> 100 µM	> 100 µM	> 100 µM	23.4	49.3	27.8	66.2 µM	> 100	> 100 µM	29.6 µM	71.9 µM			> 100	> 100	> 100 µM	50.8 µM
S=C(S)NCCCn1ccnc1		> 100		> 100 µM		> 100 µM		> 100				> 100 µM		> 100 µM		> 100 µM		> 100	> 100 µM	
COC(=O)/C1=C/C2CC(/C=C(/c3ccccc3)C(=O)O1)C2		66.4		80.6 µM		> 100 µM		53.1				62 µM		96.5 µM				96.1	49.3 µM	
O=C(O)C1(C(=O)O)CCN(S(=O)(=O)c2ccccc2)CC1		> 100		> 100 µM		> 100 µM		> 100				> 100 µM		> 100 µM		> 100 µM		> 100	> 100 µM	
C#Cc1cccc(N2C(=O)CC(=P(c3ccccc3)(c3ccccc3)c3ccccc3)C2=O)c1		> 100		> 100 µM		> 100 µM				> 100 µM				> 100 µM		> 100 µM		> 100	> 100 µM	
Cc1cc2cc(Oc3ccnc(Nc4cccc(CS(=O)(=O)NCCN(C)C)c4)n3)ccc2[nH]1	12.1	25.1	15.8	36.1 µM	13 µM	26.1 µM	11	24.2	11.6	25.2 µM	1.29	13.3 µM	7.22 µM	20.3 µM	9.11 µM	22.3 µM			18.4 µM	5.33 µM
O=C(O)c1cc2c3c(c1)[C@H]1C=CC[C@H]1CN3CC1CC=CC21 (stereo partly specified)				> 100 µM		> 100 µM		> 100		> 100 µM		> 100 µM		> 100 µM		> 100 µM		> 100	> 100 µM	
c1ccc(CN2CCC3(CC2)ONC2=NCCN23)cc1	> 100	> 100	60.9	> 100 µM	> 100 µM	> 100 µM	46.8	> 100			58.5	> 100 µM	49.7 µM	> 100 µM	> 100 µM	> 100 µM	42.8	> 100	> 100 µM	60.1 µM
O=C1c2ccccc2C(=O)N1C/C=N/NS(=O)(=O)c1ccc(Cl)cc1				> 100 µM		> 100 µM		> 100		> 100 µM				> 100 µM		> 100 µM		> 100	> 100 µM	
CC(C)c1cccc2sc(NC(=O)C(=O)CC(=O)c3ccc(F)cc3)nc12		> 100		> 100 µM		> 100 µM		> 100				> 100 µM		> 100 µM		> 100 µM		> 100	> 100 µM	

— PubChem BioAssay (NCI)
